The NIST ThermoML archive (doi:10.1021/je201009c)

Assay: xn = mol fraction of the nth substance listed
Details: for surface tension liquid-gas: Capillary rise; for viscosity / mass density: 100.8 kPa, Liquid; for viscosity: Falling or rolling sphere viscometry; for mass density: Vibrating tube method

CC(=O)OCc1ccccc1 [benzyl ethanoate] + CCO
Details	mass density [kg/m3]	surface tension liquid-gas [mN/m]	viscosity [mPa·s]
293.15 K, x2 = 0	1055.81	37.3	2.324
293.15 K, x2 = 0.0502	1050.61	36.3	2.18
293.15 K, x2 = 0.1	1044.89	35.4	2.063
293.15 K, x2 = 0.1498	1038.77	34.4	1.962
293.15 K, x2 = 0.1998	1032.15	33.4	1.879
293.15 K, x2 = 0.2499	1025.14	32.5	1.808
293.15 K, x2 = 0.2998	1017.51	31.6	1.736
293.15 K, x2 = 0.35	1009.27	30.8	1.672
293.15 K, x2 = 0.4	1000.55	30	1.613
293.15 K, x2 = 0.4501	991.15	29.3	1.551
293.15 K, x2 = 0.5	980.94	28.6	1.49
293.15 K, x2 = 0.5499	969.73	27.9	1.439
293.15 K, x2 = 0.6	957.31	27.2	1.392
293.15 K, x2 = 0.65	943.77	26.7	1.347
293.15 K, x2 = 0.7	928.69	26.2	1.305
293.15 K, x2 = 0.7499	912.06	25.8	1.267
293.15 K, x2 = 0.7999	893.44	25.2	1.232
293.15 K, x2 = 0.85	872.42	24.5	1.202
293.15 K, x2 = 0.9	848.54	23.8	1.188
293.15 K, x2 = 0.95	821.38	23.1	1.178
303.15 K, x2 = 0	1046.74	35.6	1.836
303.15 K, x2 = 0.0502	1041.18	34.8	1.75
303.15 K, x2 = 0.1	1035.33	34	1.663
303.15 K, x2 = 0.1498	1029.09	33.2	1.595
303.15 K, x2 = 0.1998	1022.42	32.4	1.534
303.15 K, x2 = 0.2499	1015.3	31.6	1.477
303.15 K, x2 = 0.2998	1007.78	30.8	1.42
303.15 K, x2 = 0.35	999.68	30	1.375
303.15 K, x2 = 0.4	990.86	29.2	1.327
303.15 K, x2 = 0.4501	981.38	28.5	1.281
303.15 K, x2 = 0.5	971.11	27.8	1.233
303.15 K, x2 = 0.5499	959.94	27.1	1.194
303.15 K, x2 = 0.6	947.61	26.4	1.151
303.15 K, x2 = 0.65	933.97	25.8	1.115
303.15 K, x2 = 0.7	919.03	25.2	1.077
303.15 K, x2 = 0.7499	902.5	24.8	1.038
303.15 K, x2 = 0.7999	883.9	24.2	1.009
303.15 K, x2 = 0.85	863.07	23.6	0.989
303.15 K, x2 = 0.9	839.36	22.9	0.982
303.15 K, x2 = 0.95	812.21	22.2	0.975
313.15 K, x2 = 0	1037.42	34.3	1.474
313.15 K, x2 = 0.0502	1031.85	33.6	1.413
313.15 K, x2 = 0.1	1025.96	32.8	1.362
313.15 K, x2 = 0.1498	1019.7	32	1.308
313.15 K, x2 = 0.1998	1012.98	31.3	1.265
313.15 K, x2 = 0.2499	1005.82	30.5	1.226
313.15 K, x2 = 0.2998	998.2	29.8	1.181
313.15 K, x2 = 0.35	989.97	29.1	1.143
313.15 K, x2 = 0.4	981.2	28.4	1.101
313.15 K, x2 = 0.4501	971.7	27.7	1.067
313.15 K, x2 = 0.5	961.42	27	1.029
313.15 K, x2 = 0.5499	950.19	26.4	0.999
313.15 K, x2 = 0.6	937.83	25.8	0.964
313.15 K, x2 = 0.65	924.36	25.2	0.93
313.15 K, x2 = 0.7	909.51	24.6	0.891
313.15 K, x2 = 0.7499	893.04	24	0.867
313.15 K, x2 = 0.7999	874.6	23.4	0.841
313.15 K, x2 = 0.85	853.75	22.8	0.823
313.15 K, x2 = 0.9	830.17	22.1	0.812
313.15 K, x2 = 0.95	803.27	21.4	0.808
323.15 K, x2 = 0	1027.51	33.2	1.256
323.15 K, x2 = 0.0502	1021.88	32.5	1.22
323.15 K, x2 = 0.1	1015.97	31.8	1.187
323.15 K, x2 = 0.1498	1009.69	31.1	1.154
323.15 K, x2 = 0.1998	1002.94	30.4	1.12
323.15 K, x2 = 0.2499	995.85	29.6	1.086
323.15 K, x2 = 0.2998	988.26	28.9	1.05
323.15 K, x2 = 0.35	980.03	28.2	1.015
323.15 K, x2 = 0.4	971.24	27.5	0.979
323.15 K, x2 = 0.4501	961.72	26.7	0.943
323.15 K, x2 = 0.5	951.49	26	0.911
323.15 K, x2 = 0.5499	940.31	25.3	0.882
323.15 K, x2 = 0.6	927.98	24.7	0.853
323.15 K, x2 = 0.65	914.58	24.1	0.825
323.15 K, x2 = 0.7	899.72	23.5	0.795
323.15 K, x2 = 0.7499	883.26	22.9	0.77
323.15 K, x2 = 0.7999	864.86	22.3	0.743
323.15 K, x2 = 0.85	844.15	21.7	0.723
323.15 K, x2 = 0.9	820.71	21	0.704
323.15 K, x2 = 0.95	794.02	20.3	0.692
